Test results taken from patent US9504702B2, “Methods of inhibition of protein fucosylation in vivo using fucose analogs” (Seattle Genetics, Inc., priority 2010, dated 2016).
Where two headings read alike, the source gives them in different places.

How the values were obtained:
[1] = tested on: antibodies (h1F6 produced by CHO DG44 cell line); assay: Incorporation of fucose analogs into antibodies in CHO DG44 cell culture; assay type: cell-based
Description: (§1) Fucose analogs have been evaluated for their effect on antibody core fucosylation at concentrations of 50 μM and 1 mM generally as described in Published US Patent Application 2009-0317869. Briefly, the protocol was as follows: A CHO DG44 cell line producing a humanized IgG1 anti-CD70 monoclonal antibody, h1F6 (see International Patent Publication WO 06/113909) was cultured at 7.5×10^5 cells per mL in 2 mLs of CHO culture media at 37°, 5% CO2 and shaking at 100 RPM in a 6 well tissue culture plate. Media was supplemented with insulin like growth factor (IGF), penicillin, streptomycin and either 1 mM or 50 μM of the fucose analog. On day 5 post inoculation, the culture was centrifuged at 13000 RPM for 5 minutes to pellet the cells; antibodies were then purified from supernatant.
(§2) Antibody purification was performed by applying the conditioned media to protein A resin pre-equilibrated with 1× phosphate buffered saline (PBS), pH 7.4. After washing resin with 20 resin bed volumes of 1×PBS, antibodies were eluted with 5 resin bed volumes of Immunopure IgG elution buffer (Pierce Biotechnology, Rockford, Ill.). A 10% volume of 1M Tris pH 8.0 was added to neutralize the eluted fraction.
Certain other fucose analogs were tested for their ability to be incorporated into antibodies. These fucose analogs were tested at concentrations of 50 μM and 1 mM using the methodology as described above.

[2] = tested on: antibody core fucosylation (CHO DG44 cell line producing humanized IgG1 anti-CD70 antibody h1F6); assay: Inhibition of antibody core fucosylation in CHO DG44 cell culture producing h1F6; assay type: cell-based; settings: day 5, CHO DG44 h1F6; for Inhibition at 50 μM: 50 μM fucose analog; for Inhibition at 1 mM / inhibition at 1000 µM: 1 mM fucose analog
Description: as §1, §2

[3] = tested on: LP-1 cells (1,6-fucosylation on the antibody); assay: Fucosylation status of LP-1-generated IgG by reducing PLRP-MS; assay type: cell-based, human; settings: 5 days; for PLRP/MS (inhibition or incorporation): in words
Description: To further define the results of the AOL dot blot, samples of the IgGs produced by cells treated with the following fucose analogs (that gave moderate to strong decreases in the dot blot AOL signal) were isolated and examined by reducing PLRP-MS to verify the fucosylation status using the MW of the heavy chain: alkynyl fucose peracetate; 5-vinylfucose tetraaceate; 5-methylketofucose tetraacetate; 6-bromofucose tetraacetate; 6-fluorofucose tetraacetate; 5-ethylfucose tetraacetate; 5-epoxyfucose tetraacetate; 6′6-difluorofucose tetraacetate; 6-keto-6-ethyl fucose tetraacetate; and 2-fluorofucose peracetate.
40 mL samples of LP-1 cells (250,000 cells/mL) were treated with 100 μM of a fucose analog for 5 days as described above, and the IgGs were purified as described using protein A resin. The yields were estimated by UV spectroscopy assuming an extinction coefficient of 1.4 AU/(mg/mL). Seven of the ten compounds yielded enough IgG to perform the analysis (use of SGD-2067, SGD-1964, and SGD-2020 yielded <10 μg of IgG, likely due to toxicity of the analogs to the cells). The remaining IgGs were reduced with 10 mM DTT at 37° C. for 15 min and were separated on PLRP followed by MS analysis using a QTOF mass spectrometer. The resulting heavy chain peaks were examined and compared to the IgG generated by untreated cells.
The mass spectrometry signals were evaluated by comparing the peak height of the heavy chain versus heavy chain minus fucose and heavy chain minus fucose plus the mass of the fucose analog (which would arise if there was incorporation of the analog into the antibody carbohydrate).

[4] = tested on: LP-1, a human multiple myeloma cell line (IgG fucosylation); assay: Fucosylation of LP-1-generated IgG, AOL dot blot; assay type: cell-based; settings: for inhibition of IgG fucosylation in human cells (decrease in AOL signal, dot blot) / dot blot results (% fucose signal of control) / % of control fucosylated IgG value: 100 μM; for inhibition of IgG fucosylation in human cells (decrease in AOL signal, dot blot) / activity at 100 µM / % of control fucosylated IgG value: LP-1 cells; for activity at 100 µM: Homo sapiens, LP-1, 120 h, read-out: % of control fucosylated IgG value; for activity at 100 µM / % of control fucosylated IgG value: 5 days, AOL dot blot, multiple samples separated by semicolon; for dot blot results (% fucose signal of control): LP-1-generated IgG
Description: To further evaluate the activities of different fucose analogs, 48 different fucose analogs and other four glycosylation inhibitors were tested for their ability to affect the fucosylation the LP-1-generated IgG. LP-1 cells (250,000 cells/mL, 3 mL per compound in 6-well plates) were incubated with 100 μM of each fucose analog for 5 days at 37° C. with a humidified atmosphere of 5% CO2 in IgG-depleted tissue culture media (90% RPMI with 10% IgG-depleted heat inactivated FBS). The IgG was isolated as described above using only 0.5 mL of MabSelect™ protein A resin slurry and one spin cup per sample with elution in 400 μL of IgG elution buffer into 25 μL of 9 M Tris buffer, pH 9. The eluates were concentrated to 10-20 μL per sample and 2 μL of each of the concentrated eluates were dotted onto a nitrocellulose membrane and stained with Ponceau S to estimate and adjust the sample loading for AOL staining. From this estimation of total protein in each sample, approximately 0.5 μg of each sample was dotted onto the membrane, air-dried, and stained with Ponceau S. An image of this stained membrane was captured using an Alpha Innotech FlourChem® Q system. The membrane was then blocked with 5% Bovine Serum Albumin (BSA) in Tris Buffered Saline (TBS) for 1 hr, washed with TBST (TBS with […]) 3 times and then incubated with 5 μg/ml biotinylated-AOL for 1 hr. The membrane was washed again with TBST 3 times, followed by Streptavidin-HRP incubation for 30 min and final washes with TBST 3 times.

[5] = concentration not given in the cell (tested at 50 μM and 1 mM)
[6] = 120 h, read-out: Inhibition at 50 μM

Row | Compound | % Incorporation ([1]; 50 uM) | % Incorporation ([1]; 1 mM) | Inhibition at 50 μM [2] [%] | Inhibition at 1 mM [2] | PLRP/MS (inhibition or incorporation) ([3]; 100 μM) | inhibition of IgG fucosylation in human cells (decrease in AOL signal, dot blot) [4] | activity at 100 µM [4] [%] | dot blot results (% fucose signal of control) [4] | % of control fucosylated IgG value [4] | other results
1 | CC[C@@H]1OC(O)[C@@H](O)[C@H](O)[C@@H]1O (stereo partly drawn) [5-ethyl fucose, (3S,4R,5S,6S)-6-ethyl-tetrahydro-2H-pyran-2,3,4,5-tetraol] | >80% | >80% |  |  |  |  |  |  |  | 
2 | CC(=O)OC1O[C@@H]([C@]2(C)CO2)[C@@H](OC(C)=O)[C@@H](OC(C)=O)[C@@H]1OC(C)=O (stereo partly drawn) [5-methyloxiran-arabinose tetraacetate, (3S.4R.5S.6R)-6-((S)-2-methyloxiran-2-yl)-tetrahydro-2H-pyran-2,3,4,5-tetrayl tetraacetate] |  |  | ~0 | ~35-40% |  |  |  |  |  | % Incorporation [1, 5]: ~60%
3 | CC[C@@H]1OC(OC(C)=O)[C@@H](OC(C)=O)[C@H](OC(C)=O)[C@H]1OC(C)=O (stereo partly drawn) [SGD-1989, (3S,4R,5S,6S)-6-ethyl-tetrahydro-2H-pyran-2,3,4,5-tetrayl tetraacetate] | >90% | >90% |  |  | Fully incorporated | potentially strong inhibitors | 11 | 11 % fucose signal of control |  | 
4 | C#CC[C@@H]1OC(OC(C)=O)[C@@H](OC(C)=O)[C@H](OC(C)=O)[C@@H]1OC(C)=O (stereo partly drawn) [SGD-1987, (3S,4R,5R,6S)-6-(prop-2-ynyl)-tetrahydro-2H-pyran-2,3,4,5-tetrayl tetraacetate] |  | 80% (1 mM) |  |  |  |  | 38 |  |  | Inhibition at 50 μM [2, 6]: ~10%; inhibition at 1000 µM ([2]; 120 h): 10 to 20%
5 | CC(=O)OC1OC(CF)[C@@H](OC(C)=O)[C@@H](OC(C)=O)[C@@H]1OC(C)=O (stereo partly drawn) [SGD-1988, (3S,4R,5S)-6-(fluoromethyl)tetrahydro-2H-pyran-2,3,4,5-tetrayl tetraacetate] | >90% | >90% |  |  | Full incorporator | potentially strong inhibitors | 15 | 15 % fucose signal of control |  | 
6 | C=C(C)[C@@H]1OC(OC(C)=O)[C@@H](OC(C)=O)[C@H](OC(C)=O)[C@@H]1OC(C)=O (stereo partly drawn) [Isopropenyl peracetyl fucose, (3S,4R,5R,6S)-6-(prop-1-en-2-yl)-tetrahydro-2H-pyran-2,3,4,5-tetrayl tetraacetate] | >80% (1 mM and 50 uM) | >80% (1 mM and 50 uM) |  |  |  |  |  |  |  | 
7 | CC(=O)OC1OC(C(F)F)C(OC(C)=O)C(OC(C)=O)C1OC(C)=O (stereo not drawn) [SGD-2046, 6′6-difluoro fucose tetraacetate] |  |  | >80 | >80% | Partial incorporator | potentially strong inhibitors |  | 2 % fucose signal of control | 2 % of control | PLRP/MS fucose inhibition ([3]; 100 μM, heavy chain peak heights): ~33%
8 | C=CC1OC(OC(C)=O)C(OC(C)=O)C(OC(C)=O)C1OC(C)=O (stereo not drawn) [SGD-1922, 5-ethylenylarabinose tetraacetate] |  |  | ~0 | ~4% | Full incorporator |  |  | 2 % fucose signal of control | 2 % of control | 
9 | 6-allene fucose tetraacetate [SGD-2097] |  |  | 23 | 34% |  |  |  |  | 45 % of control | % Incorporation [1, 5]: ~30%
10 | CC(=O)OC1OC(CBr)[C@@H](OC(C)=O)[C@@H](OC(C)=O)[C@@H]1OC(C)=O (stereo partly drawn) [SGD-1969, (3S,4R,5S)-6-(bromomethyl)tetrahydro-2H-pyran-2,3,4,5-tetrayl tetraacetate] | ~50% | 20% at |  |  | Partial incorporator | potentially strong inhibitors | 1 | 1 % fucose signal of control |  | Inhibition at 50 μM [2, 6]: 50%; inhibition at 1000 µM ([2]; 120 h): 80%; inhibition at 100 µM ([3]; Homo sapiens, 120 h, heavy chain peak heights, read-out: PLRP/MS fucose inhibition): 20%
11 | alkynyl fucose tetraisonicotinate [SGD-2058] |  |  | >80 | >80% |  |  |  |  | 34 % of control | 
12 | 1-methyl alkynyl fucose triacetate [SGD-2059] |  |  | 68 | >80% |  |  |  |  | 89 % of control | 
